Values of other authors, collected in patent US20090209641A1, “PHARMACEUTICAL COMPOSITION FOR ADMINISTRATION BY INJECTION” (priority 2006, published 2009).

Question: With `N.N.O=C([O-])C1(C(=O)[O-])CCC1.[Pt+2]` [carboplatinum] as the compound, how does the solubility in water read?
Answer: 17 mg/mL
